Results on 26 molecules are retold here after patent US6124328A, “Methods and compositions for stimulating neurite growth” (Vertex Pharmaceuticals Incorporated, priority 1997, dated 2000).

pKi: −log10 of the molar value. A value given as a limit tells only on which side of the number the result lay.

For assay [1], the system named is PC12 rat pheochromocytoma cells. Particulars: Lyons et al., cited from earlier work.
The test system of assay [2] is dorsal root ganglia (sensory ganglia). The conditions noted are these: Lyons et al., cited from earlier work.
The subject of assay [3] is ryanodine receptor (RyR). The conditions noted are these: cited from earlier work.
For assay [4], the system named is inositol 1,4,5-triphosphate receptor (IP3 R). Particulars: cited from earlier work.
The target in assay [5] is FKBP12 (Homo sapiens, UniProt P62942). Nature of the assay: FKBP12 Binding Assay: inhibition of FKBP rotomase activity (cis-N-succinyl-Ala-Ala-Pro-Phe-p-nitroanilide / chymotrypsin), apparent Ki. It counts as biochemical. The conditions noted are these: compound 0.1 nM-10 μM. The text has this: Preferably, the assay measures inhibition of FKBP12 rotomase activity. Such an assay has also been described by M. W. Harding et al., supra and by J. J. Siekierka et al., supra. In this assay the isomerization of an artificial substrate--N-succinyl-Ala-Ala-Pro-Phe-p-nitroanilide--is followed spectrophotometrically. The assay includes the cis form of the substrate, FKBP12, the inhibitor and chymotrypsin. Chymotrypsin is able to cleave p-nitroanilide from the trans form of the substrate, but not the cis form. Release of p-nitroanilide is measured.
Sequence of FKBP12 (P62942 whole entry): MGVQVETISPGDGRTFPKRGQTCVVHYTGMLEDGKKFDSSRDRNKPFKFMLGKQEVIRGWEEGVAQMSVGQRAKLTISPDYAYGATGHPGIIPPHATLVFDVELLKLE
In this assay various quantities of FKBP12 binding compound (0.1 nM-10 μM) were added to cis-N-succinyl-Ala-Ala-Pro-Phe-p-nitroanilide in the presence of FKBP12 and chymotrypsin. FKBP12 converts the cis form of the substrate to the trans form. This allows chymotrypsin to cleave p-nitroanilide from the substrate. Release of p-nitroanilide was measured spectrophotometrically.

With `CO[C@H]1C[C@@H]2CC[C@@H](C)[C@@](O)(O2)C(=O)C(=O)N2CCCC[C@H]2C(=O)O[C@H]([C@H](C)C[C@@H]2CC[C@@H](O)[C@H](OC)C2)CC(=O)[C@H](C)/C=C(\C)[C@@H](O)[C@@H](OC)C(=O)[C@H](C)C[C@H](C)/C=C/C=C/C=C/1C` [rapamycin], in assay [1] (with FK-506), the “effect on FK-506-induced neurite outgrowth” value is “did not inhibit the effects of FK-506 on neurite outgrowth” and the “neurotrophic effect in combination with FK-506” value is reported as “additive effect with FK-506”. Besides, the “effect on FK-506 neurotrophic effects in sensory ganglia” value in assay [2] (with FK-506) was “those effects were blocked by rapamycin”. For the same molecule, the “dissociating FKBP12 from the receptor” value in assay [3] is “capable of dissociating FKBP12 from the receptor”. In assay [4], the “dissociating FKBP12 from the receptor” value is “capable of dissociating FKBP12 from the receptor”. As usually defined, the pKi is the Ki on a negative log10 scale, so that one unit is a factor of ten. For `COc1cc(C(=O)C(=O)N2CCCC[C@H]2C(=O)OC(CCCc2ccccc2)c2cc(OCc3ccncc3)c(OCc3ccncc3)c(OCc3ccncc3)c2)cc(OC)c1OC` (stereo partly drawn) [compound 70], the pKi in assay [5] (Table 2, formula II') was 8.30.

Take `COc1cc(C(=O)C(=O)N2CCCC[C@H]2C(=O)OC(CCCc2ccccc2)CCCn2cnc3cncnc32)cc(OC)c1OC` (stereo partly drawn) [compound 25]: the pKi in assay [5] (Table 2, formula II') was 8.66.

Consider `COc1cc(C(=O)C(=O)N2CCCC[C@H]2C(=O)OCCCC(C)C2CCCCC2)cc(OC)c1OC` (stereo partly drawn), for which the pKi in assay [5] (Table 1a, formula Ia) is 7.05.

Take `COc1cc(C(=O)C(=O)N2CCCC[C@H]2C(=O)OC(C)c2cc(OCc3ccsc3)c(OCc3ccsc3)c(OCc3ccsc3)c2)cc(OC)c1OC` (stereo partly drawn) [compound 83]: the pKi in assay [5] (Table 2, formula II') was less than 6.00. On the same count and under the same terms, under `COc1cc(C(=O)C(=O)N2CCCC[C@H]2C(=O)OC(CCCc2ccccc2)c2cccc(C(=O)N3CCOCC3)c2)cc(OC)c1OC` (stereo partly drawn) [compound 56] stands 8.21; under `C=CCOc1c(OC)cc(C(=O)C(=O)N2CCCC[C@H]2C(=O)OC(CCCc2ccccc2)c2cccc(C(=O)c3ccncc3)c2)cc1OC` (stereo partly drawn) [compound 95], 8.44.

Consider `COc1cc(C(=O)C(=O)N2CCCC[C@H]2C(=O)OC(CCCc2ccccc2)CCCc2ccc[n+]([O-])c2)cc(OC)c1OC` (stereo partly drawn) [compound 22], for which the pKi in assay [5] (Table 2, formula II') is 8.15. As to `COc1cc(C(=O)C(=O)N2CCC[C@H]2C(=O)OC(CCCc2cccnc2)CCCc2cccnc2)cc(OC)c1OC` [compound 108], in assay [5] (Table 2, formula II'), the pKi is 7.05. The same measure, in the same setting: the figure for `CC(C)C(=O)C(=O)N1CCCC[C@H]1C(=O)OC(CCCc1cccnc1)CCCc1cccnc1` [compound 109] is 5.82; for `C=CCC(OC(=O)[C@@H]1CCCCN1C(=O)C(=O)c1cc(OC)c(OC)c(OC)c1)c1ccc(OCc2ccncc2)c(OCc2ccncc2)c1` (stereo partly drawn) [compound 62] it is 7.21; for `COc1cc(C(=O)C(=O)N2CCCC[C@H]2C(=O)OC(CCCc2ccccc2)CCCc2ccc(C(=O)N3CCOCC3)cc2)cc(OC)c1OC` (stereo partly drawn) [compound 44] it is 8.22. `C=CC[C@@H]1/C=C(\C)C[C@H](C)C[C@H](OC)[C@H]2O[C@@](O)(C(=O)C(=O)N3CCCC[C@H]3C(=O)O[C@H](/C(C)=C/[C@@H]3CC[C@@H](O)[C@H](OC)C3)[C@H](C)[C@@H](O)CC1=O)[C@H](C)C[C@@H]2OC` [FK-506]: the “neurite outgrowth (synergy with NGF)” value in assay [1] (with NGF, rat pheochromocytoma cell line) was “acts synergistically with nerve growth factor (NGF) in stimulating neurite outgrowth”. For the same molecule, the “neurotrophic effects in sensory ganglia” value in assay [2] was “demonstrated similar neurotrophic effects”. Further, the “dissociating FKBP12 from the receptor” value in assay [3] and in assay [4] was “capable of dissociating FKBP12 from the receptor” throughout. `COc1cc(C(=O)C(=O)N2CCCC[C@H]2C(=O)OC(CCCc2ccccc2)c2cccc(CO)c2)cc(OC)c1OC` (stereo partly drawn) [compound 37]: the pKi in assay [5] (Table 2, formula II') was 8.17. In the case of `COc1cc(C(=O)C(=O)N2CCCC[C@H]2C(=O)OC(C)c2cc(OCc3ccncc3)c(C)c(OCc3ccncc3)c2)cc(OC)c1OC` (stereo partly drawn) [compound 73], the pKi in assay [5] (Table 2, formula II') is 7.44. The same measure, in the same setting: the figure for `COc1cc(C(=O)C(=O)N2CCCC[C@H]2C(=O)OC(CCCc2ccccc2)CCCc2cccc(C(=O)NCc3ccccc3)c2)cc(OC)c1OC` (stereo partly drawn) [compound 59] is 7.40; for `CCC(OC(=O)[C@@H]1CCCCN1C(=O)C(=O)c1cc(OC)c(OC)c(OC)c1)c1cc(OCc2ccncc2)c(OCc2ccncc2)c(OCc2ccncc2)c1` (stereo partly drawn) [compound 74] it is 7.74. For `CCC(OC(=O)[C@@H]1CCCCN1C(=O)C(=O)c1cc(OC)c(OC)c(OC)c1)c1cc(OCc2ccncc2)c(OCc2ccncc2)c(OCc2ccncc2)c1` (stereo partly drawn) [compound 75], the negative-log Ki (pKi) in assay [5] (Table 2, formula II') was 7.92.

On to `COc1cc(C(=O)C(=O)N2CCCC[C@H]2C(=O)OC(CCCc2ccccc2)c2cccc(C(=O)c3cccnc3)c2)cc(OC)c1OC` (stereo partly drawn) [compound 92], for which the pKi in assay [5] (Table 2, formula II') was 8.05. On to `COc1cc(C(=O)C(=O)N2CCCC[C@H]2C(=O)OC(CCCc2ccccc2)CCCn2ccc3cccnc32)cc(OC)c1OC` (stereo partly drawn) [compound 23], for which the pKi in assay [5] (Table 2, formula II') is 8.05. On the same count and under the same terms, under `COc1cc(C(=O)C(=O)N2CCCC[C@H]2C(=O)OC(C)c2cc(OCc3ccncc3)cc(OCc3ccncc3)c2)cc(OC)c1OC` (stereo partly drawn) [compound 71] stands 7.85. For the molecule `COc1cc(C(=O)C(=O)N2CCCC[C@H]2C(=O)OC(CCCc2ccccc2)c2ccccc2)cc(OC)c1OCc1ccccc1` (stereo partly drawn) [compound 104], the pKi in assay [5] (Table 2, formula II') was 5.77. On the same count and under the same terms, under `C=CCOc1ccccc1C(CCCc1ccccc1)OC(=O)[C@@H]1CCCCN1C(=O)C(=O)c1cc(OC)c(OC)c(OC)c1` (stereo partly drawn) [compound 34] stands 6.82. As for `COc1cc(C(=O)C(=O)N2CCCC[C@H]2C(=O)OC(C)c2cc(OCc3ccncc3)cc(OCc3ccncc3)c2)cc(OC)c1OC` (stereo partly drawn) [compound 72], the pKi in assay [5] (Table 2, formula II') was 7.92. On to `COc1cc(C(=O)C(=O)N2CCCC[C@H]2C(=O)OC(c2ccccc2)c2cccc(Oc3ccccc3)c2)cc(OC)c1OC` (stereo partly drawn) [compound 5], for which the pKi in assay [5] (Table 2, formula II') is 5.40. As to `COc1cc(C(=O)C(=O)N2CCC[C@H]2C(=O)OC(C)c2cc(OCc3ccncc3)c(OCc3ccncc3)c(OCc3ccncc3)c2)cc(OC)c1OC` (stereo partly drawn) [compound 86], the pKi in assay [5] (Table 2, formula II') is 6.55.
